In patent publication US20110028686A1, “Protein binding miniature proteins” (Yale University, priority 2000, published 2011):
Several values for one entry are separate records, joined by “and”; a condition that tells them apart may be missing. Identical values can stand only once. Like-named read-outs stand apart in the source and are kept apart here. Ends that are not written are not given here. Peptide text beside a SMILES is read from it. * marks the point of attachment. Fluorescein(5-NHCOCH2) = O=C(C*)Nc1ccc2c(c1)C(=O)OC21c2ccc(O)cc2Oc2cc(O)ccc21

Key:
[1] = target: T1, CBP KIX Y650A (Mus musculus, UniProt P45481, Y650A); experiment: Equilibrium fluorescence polarization, CBP KIX variant Y650A; type: binding; conditions: 25° C.
T1 construct: made in house; host or cells: E. coli BL21(DE3) pArg

[2] = target: T2, HisKIX (His-tagged CBP KIX domain) (Mus musculus, UniProt P45481); experiment: Equilibrium fluorescence polarization, HisKIX binding; conditions: 25° C.
T2 construct: The CBP KIX-coding region (residues 586 to 672) of pGEX-KT KIX 10-672; made in house; host or cells: E. coli BL21(DE3) pArg

[3] = target: T3, CBP KIX K662A (Mus musculus, UniProt P45481, K662A); experiment: Equilibrium fluorescence polarization, CBP KIX variant K662A; type: binding; conditions: 25° C.
T3 construct: made in house; host or cells: E. coli BL21(DE3) pArg

[4] = target: T4, Carbonic anhydrase II (Homo sapiens, UniProt P00918); experiment: Fluorescence polarization specificity, carbonic anhydrase II; type: binding; conditions: carbonic anhydrase II as target protein; read-out: Kd CA
T4 construct: purchased Sigma
Description: (§1) Given the myriad protein surfaces present in the cell, the utility of molecules that recognize protein surfaces will depend on their ability to interact selectively with the desired protein.

[5] = target: T5, CBP KIX LL652-3AA (Mus musculus, UniProt P45481, L652A/L653A); experiment: Equilibrium fluorescence polarization, CBP KIX variant LL652-3AA; type: binding; conditions: 25° C.
T5 construct: made in house; host or cells: E. coli BL21(DE3) pArg

[6] = target: T6, CBP KIX L603A (Mus musculus, UniProt P45481, L603A); experiment: Equilibrium fluorescence polarization, CBP KIX variant L603A; type: binding; conditions: 25° C.
T6 construct: made in house; host or cells: E. coli BL21(DE3) pArg

[7] = target: T7, GST-KIX (Mus musculus, UniProt P45481); experiment: Fluorescence polarization, wild type GST-KIX; type: binding
T7 construct: pGST-ΔKIX(588-683) (a gift from Jennifer Nyborg); made in house; host or cells: E. coli BL21(DE3) pArg

[8] = target: T8, CBP KIX I657A (Mus musculus, UniProt P45481, I657A); experiment: Equilibrium fluorescence polarization, CBP KIX variant I657A; type: binding; conditions: 25° C.
T8 construct: made in house; host or cells: E. coli BL21(DE3) pArg

[9] = target: T9, CBP KIX Y658A (Mus musculus, UniProt P45481, Y658A); experiment: Equilibrium fluorescence polarization, CBP KIX variant Y658A; type: binding; conditions: 25° C.
T9 construct: made in house; host or cells: E. coli BL21(DE3) pArg

[10] = target: T10, CBP KIX K606A (Mus musculus, UniProt P45481, K606A); experiment: Equilibrium fluorescence polarization, CBP KIX variant K606A; type: binding; conditions: 25° C.
T10 construct: made in house; host or cells: E. coli BL21(DE3) pArg

[11] = target: T11, CBP KIX L599A (Mus musculus, UniProt P45481, L599A); experiment: Equilibrium fluorescence polarization, CBP KIX variant L599A; type: binding; conditions: 25° C.
T11 construct: made in house; host or cells: E. coli BL21(DE3) pArg

[12] = target: T12, CBP KIX Q661A (Mus musculus, UniProt P45481, Q661A); experiment: Equilibrium fluorescence polarization, CBP KIX variant Q661A; type: binding; conditions: 25° C.
T12 construct: made in house; host or cells: E. coli BL21(DE3) pArg

[13] = target: T13, CBP KIX Y658F (Mus musculus, UniProt P45481, Y658F); experiment: Equilibrium fluorescence polarization, CBP KIX variant Y658F; type: binding; conditions: 25° C.
T13 construct: made in house; host or cells: E. coli BL21(DE3) pArg

[14] = target: T14, Calmodulin (Homo sapiens, UniProt P0DP23); experiment: Fluorescence polarization specificity, calmodulin; type: binding; conditions: calmodulin as target protein; read-out: Kd CalM
T14 construct: purchased Sigma
Description: as §1

[15] = target: T15, CBP KIX E655A (Mus musculus, UniProt P45481, E655A); experiment: Equilibrium fluorescence polarization, CBP KIX variant E655A; type: binding; conditions: 25° C.
T15 construct: made in house; host or cells: E. coli BL21(DE3) pArg

[16] = target: T16, CBP KIX I660A (Mus musculus, UniProt P45481, I660A); experiment: Equilibrium fluorescence polarization, CBP KIX variant I660A; type: binding; conditions: 25° C.
T16 construct: made in house; host or cells: E. coli BL21(DE3) pArg

[17] = target: T17, CBP KIX wild type (Mus musculus, UniProt P45481); experiment: Equilibrium fluorescence polarization, wild type CBP KIX; type: binding; conditions: 25° C.
T17 construct: made in house; host or cells: E. coli BL21(DE3) pArg

[18] = target: T14, Calmodulin; experiment: Fluorescence polarization specificity, calmodulin; type: binding
Protocol: (§2) FIG. 3—Fluorescence polarization analysis of the affinity of GST-MDM2 for selected peptides and the affinity of pP53-05 for selected proteins. […] Each point represents the average of at least three trials. Error bars represent the standard error. Kd values were calculated as described in Heyduk, et al., Proc Natl Acad Sci USA 1990, 87, 1744. […] Plot illustrates the fraction of p53AD-Flu (10 nM) bound to GST-MDM2 (400 nM) at equilibrium as a function of added pP53-05 (4.5 μM-0.18 μM). Ki was calculated using the Cheng-Prusoff equation.
(§3) The specificity of pP53-05 was evaluated by measuring its affinity for several receptors and enzymes that bind helical or hydrophobic peptides or small molecules (FIG. 3).

[19] = target: T18, GST-MDM2 (Homo sapiens, UniProt Q00987); experiment: Competition fluorescence polarization, p53AD-Flu bound to GST-MDM2; type: binding; conditions: p53AD-Flu 10 nM, GST-MDM2 400 nM; Cheng-Prusoff
Protocol: (§4) Each point represents the average of at least three trials. Error bars represent the standard error. Kd values were calculated as described in Heyduk, et al., Proc Natl Acad Sci USA 1990, 87, 1744. […] Ki was calculated using the Cheng-Prusoff equation.

[20] = target: carbonic anhydrase; experiment: Fluorescence polarization specificity, carbonic anhydrase; type: binding
Protocol: as §2, §3

[21] = target: T18, GST-MDM2; experiment: Fluorescence polarization, affinity for GST-MDM2; type: binding; conditions: fluorescein-labeled peptide; read-out: equilibrium dissociation constant (Kd) of the peptide·GST-MDM2 complex
Protocol: (§5) Residues in yellow and blue stabilize the aPP hydrophobic core; those in red contribute to the binding of MDM2.
as §4

[22] = system: GST-MDM2; experiment: Fluorescence polarization, affinity for GST-MDM2; type: binding, human; conditions: calmodulin, Fos, carbonic anhydrase, protein kinase A vs GST-MDM2
Protocol: as §5, §4

[23] = target: T19, bZIP region of Fos (Homo sapiens, UniProt P01100); experiment: Fluorescence polarization specificity, Fos; type: binding
T19 construct: the bZIP region of Fos, which forms dimeric complexes with other bZIP proteins
Protocol: as §2, §3

[24] = Circular dichroism thermal denaturation; type: physicochemical; conditions: far UV circular dichroism at 222 nm
Protocol: Spectra were acquired in 0.5×PBS at 25° C. using a Aviv Model 62DS spectrometer. […] Each data set represents the average of 10 scans. Spectra were background corrected but were not smoothed. (b) Temperature dependence of the CD spectrum of pP53-05. ΘMRE is in units of deg·cm^2·dmol^−1.
Circular dichroism spectra were recorded in PBS on an Aviv 202 CD Spectrometer and were background corrected but not smoothed. Wavelength scans were performed at 4° C. between 200 and 260 nm at 1 nm intervals with a recording time of five seconds at each interval. Bak (72-94), 4099, 4100, 4101, 4102 were used at concentrations of 0.028 mM, 0.0069 mM, 0.0119 mM, 0.014 mM and 0.016 mM respectively. Thermal denaturation curves were measured at 222 nm between 4-98° C. with 2° C. steps and one minute equilibration at each temperature. Peptides were used at the highest concentrations used for the wavelength scans described above. Mean residue elliptcity and percent helicity were calculated from the value at 222 nm after background correction.

[25] = target: protein kinase A (Homo sapiens, UniProt P17612); experiment: Fluorescence polarization specificity, protein kinase A; type: binding
Protocol: as §2, §3

[26] = target: KIX; conditions: various techniques; isothermal titration calorimetry for KID(129-149)^P; read-out: previously reported Kd of KID^P·KIX complexes; cited from earlier work
Sequence of KIX (Q92793 587-673 limits assumed): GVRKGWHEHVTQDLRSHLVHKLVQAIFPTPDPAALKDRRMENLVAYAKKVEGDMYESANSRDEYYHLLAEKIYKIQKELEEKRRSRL

T2 sequence (P45481 586-672): as the sequence (Q92793 587-673 limits assumed) above
T18 sequence (Q00987 whole entry): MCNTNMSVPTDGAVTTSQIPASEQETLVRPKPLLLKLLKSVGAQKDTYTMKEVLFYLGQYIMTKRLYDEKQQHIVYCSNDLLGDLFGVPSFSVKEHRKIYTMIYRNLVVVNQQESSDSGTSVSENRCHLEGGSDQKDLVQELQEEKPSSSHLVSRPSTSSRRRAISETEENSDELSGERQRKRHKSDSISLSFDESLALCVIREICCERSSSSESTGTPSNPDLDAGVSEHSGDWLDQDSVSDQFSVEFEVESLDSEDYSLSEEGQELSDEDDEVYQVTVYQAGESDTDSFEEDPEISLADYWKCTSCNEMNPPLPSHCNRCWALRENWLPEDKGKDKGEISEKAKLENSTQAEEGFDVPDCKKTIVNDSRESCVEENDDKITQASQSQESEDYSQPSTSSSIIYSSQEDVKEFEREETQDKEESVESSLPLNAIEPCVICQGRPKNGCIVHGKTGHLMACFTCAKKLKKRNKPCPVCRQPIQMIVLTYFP
T12 sequence (P45481 586-665 Q661A limits assumed): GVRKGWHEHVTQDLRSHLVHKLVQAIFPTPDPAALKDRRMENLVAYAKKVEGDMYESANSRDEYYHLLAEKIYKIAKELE
T11 sequence (P45481 586-665 L599A limits assumed): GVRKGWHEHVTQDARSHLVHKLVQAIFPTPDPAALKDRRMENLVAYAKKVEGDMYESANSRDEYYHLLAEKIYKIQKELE
T8 sequence (P45481 586-665 I657A limits assumed): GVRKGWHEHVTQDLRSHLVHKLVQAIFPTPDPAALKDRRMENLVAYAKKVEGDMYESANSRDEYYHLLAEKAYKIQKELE
T13 sequence (P45481 586-665 Y658F limits assumed): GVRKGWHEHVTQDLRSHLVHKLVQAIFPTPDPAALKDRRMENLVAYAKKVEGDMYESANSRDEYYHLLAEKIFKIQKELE
T16 sequence (P45481 586-665 I660A limits assumed): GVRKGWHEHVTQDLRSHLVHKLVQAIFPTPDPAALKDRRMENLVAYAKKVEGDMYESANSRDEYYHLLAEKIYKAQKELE
T9 sequence (P45481 586-665 Y658A limits assumed): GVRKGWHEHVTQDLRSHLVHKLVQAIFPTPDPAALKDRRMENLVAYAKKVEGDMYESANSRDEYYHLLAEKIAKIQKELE
T15 sequence (P45481 586-665 E655A limits assumed): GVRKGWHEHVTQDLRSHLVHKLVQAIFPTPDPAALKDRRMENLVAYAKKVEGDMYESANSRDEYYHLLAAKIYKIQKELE
T17 sequence (P45481 586-665 limits assumed): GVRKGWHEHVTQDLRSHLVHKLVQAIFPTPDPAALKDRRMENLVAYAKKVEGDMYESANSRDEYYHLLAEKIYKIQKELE
T10 sequence (P45481 586-665 K606A limits assumed): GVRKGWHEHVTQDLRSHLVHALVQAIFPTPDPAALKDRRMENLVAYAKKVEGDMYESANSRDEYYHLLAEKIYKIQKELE
T19 sequence (P01100 137-200 limits assumed): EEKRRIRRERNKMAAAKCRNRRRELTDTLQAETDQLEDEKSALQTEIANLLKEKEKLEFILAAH
T6 sequence (P45481 586-665 L603A limits assumed): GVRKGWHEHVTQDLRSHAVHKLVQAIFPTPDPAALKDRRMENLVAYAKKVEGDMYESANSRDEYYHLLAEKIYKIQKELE
T7 sequence (P45481 588-683): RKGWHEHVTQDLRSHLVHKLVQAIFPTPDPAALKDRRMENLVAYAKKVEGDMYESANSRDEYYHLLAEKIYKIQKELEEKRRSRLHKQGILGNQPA
T5 sequence (P45481 586-665 L652A/L653A): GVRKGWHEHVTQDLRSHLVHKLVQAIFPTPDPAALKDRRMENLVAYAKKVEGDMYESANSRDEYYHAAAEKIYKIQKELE
T1 sequence (P45481 586-665 Y650A limits assumed): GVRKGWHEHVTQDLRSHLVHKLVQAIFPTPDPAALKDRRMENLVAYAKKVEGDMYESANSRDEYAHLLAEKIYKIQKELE
T3 sequence (P45481 586-665 K662A limits assumed): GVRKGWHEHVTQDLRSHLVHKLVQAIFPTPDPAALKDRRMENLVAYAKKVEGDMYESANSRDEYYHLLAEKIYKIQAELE

Compound: CC[C@H](C)[C@H](NC(=O)CN)C(=O)N[C@@H](CO)C(=O)N[C@@H](Cc1c[nH]c2ccccc12)C(=O)N1CCC[C@H]1C(=O)N[C@H](C(=O)N[C@@H](Cc1ccccc1)C(=O)N[C@@H](CCC(=O)O)C(=O)NCC(=O)N[C@@H](CC(=O)O)C(=O)N[C@@H](CC(=O)O)C(=O)N[C@@H](C)C(=O)N1CCC[C@H]1C(=O)N[C@H](C(=O)N[C@@H](CCCNC(=N)N)C(=O)N[C@@H](CCCNC(=N)N)C(=O)N[C@@H](CC(C)C)C(=O)N[C@@H](CO)C(=O)N[C@@H](Cc1ccccc1)C(=O)N[C@@H](Cc1ccccc1)C(=O)N[C@@H](Cc1ccc(O)cc1)C(=O)N[C@H](C(=O)N[C@@H](CC(C)C)C(=O)N[C@@H](CC(C)C)C(=O)N[C@@H](CC(=O)O)C(=O)N[C@@H](CC(C)C)C(=O)N[C@@H](Cc1ccc(O)cc1)C(=O)N[C@@H](CC(C)C)C(=O)N[C@@H](CC(=O)O)C(=O)N[C@@H](C)C(=O)N1CCC[C@H]1C(=O)NCC(=O)N[C@H](C(=O)N[C@@H](CSCC(=O)Nc1ccc2c(c1)C(=O)OC21c2ccc(O)cc2Oc2cc(O)ccc21)C(N)=O)C(C)C)[C@@H](C)CC)C(C)C)[C@@H](C)O [PPKID6] (H-GISWPTFEGDDAPVRRLSFFYILLDLYLDAPGVC(Fluorescein(5-NHCOCH2))-NH2)
- Kd [1]: 1.3 ± 0.2 µM
- Kd ([2]; fluorescein-labeled phosphopeptide, read-out: Kd HisKIX, phosphorylated peptide (P)): 0.624 ± 0.049 µM
- Kd ([2]; label shows phosphorylated (P) or unphosphorylated (U) form, read-out: Kd HisKIX): 1.5 to 3.1 µM and 1.5 µM
- Kd [3]: 1.8 ± 0.3 µM
- Kd [4]: 79 ± 13 µM
- Kd [5]: 0.14 ± 0.02 µM
- Kd [6]: 2.5 ± 0.3 µM
- Kd [7]: 0.714 ± 0.128 µM
- Kd [8]: 3.6 ± 0.4 µM
- Kd [9]: 1.7 ± 0.4 µM
- Kd [10]: 1.2 ± 0.1 µM
- Kd [11]: 3.3 ± 0.3 µM
- Kd [12]: 0.41 ± 0.06 µM
- Kd [13]: 2.8 ± 0.4 µM
- Kd [14]: ≥ 168 µM
- Kd [15]: 1.7 ± 0.2 µM
- Kd [16]: 6.1 ± 0.7 µM
- Kd [17]: 0.54 ± 0.06 µM

Compound: CC[C@H](C)[C@H](NC(=O)[C@H](CC(C)C)NC(=O)[C@H](CC(=O)O)NC(=O)[C@H](CCC(=O)O)NC(=O)[C@@H](NC(=O)[C@@H]1CCCN1C(=O)[C@H](C)NC(=O)[C@H](CC(=O)O)NC(=O)[C@H](CC(=O)O)NC(=O)CNC(=O)[C@@H]1CCCN1C(=O)[C@H](Cc1ccc(O)cc1)NC(=O)[C@@H](NC(=O)[C@@H]1CCCN1C(=O)[C@H](CCC(N)=O)NC(=O)[C@H](CO)NC(=O)[C@@H]1CCCN1C(=O)CN)[C@@H](C)O)C(C)C)C(=O)N[C@@H](CCCNC(=N)N)C(=O)N[C@@H](Cc1ccccc1)C(=O)N[C@@H](CCCCN)C(=O)N[C@@H](Cc1ccccc1)C(=O)N[C@@H](CC(C)C)C(=O)N[C@@H](CC(C)C)C(=O)N[C@@H](CCC(N)=O)C(=O)N[C@@H](Cc1c[nH]c2ccccc12)C(=O)N[C@@H](Cc1ccc(O)cc1)C(=O)N[C@@H](CC(C)C)C(=O)N[C@@H](CC(C)C)C(=O)N[C@@H](C)C(=O)N[C@@H](CC(C)C)C(N)=O [pP53-05] (H-GPSQPTYPGDDAPVEDLIRFKFLLQWYLLAL-NH2; N-terminus and C-terminus assumed)
- Kd [18]: > 275 µM
- Ki [19]: 0.722 µM
- Kd [20]: 298 µM
- Kd [21]: 0.099 ± 0.011 µM
- ΔΔG between stabilities of non-target protein complexes and pP53-05·GST-MDM2 [22]: 2.8-4.4 kcal·mol^−1
- Kd [23]: 42 µM
- Tm, cooperative thermal melt [24]: 47 °C
- Kd [25]: 16 µM

Compound: KID(129-149)^P: phosphorylated CREB KID residues 129-149, literature (SDAPGVPRIEEEKSEEETSAP; also: phosphorylated, sites not given here; UniProt P16220 129-149, looked up, fragment)
- Kd [26]: 80 µM
